# Results from patent US4017611A, “Control of insects with 3-hydroxymethacrylic acid methyl ester dimethylthionophosphate” (priority 1970, dated 1977).
# Where two headings read alike, the source gives them in different places.
# Experiments:
# [1] = system: one day old houseflies (Musca domestica); experiment: Ingestion test with one day old houseflies; format: in vivo; settings: read-out: % flies killed; for mortality at 0.4 ppm: 0.4 ppm in 30% sugar water; for mortality at 0.8 ppm: 0.8 ppm in 30% sugar water; for mortality at 1.5 ppm: 1.5 ppm in 30% sugar water; for mortality at 3 ppm: 3 ppm in 30% sugar water; for mortality at 6 ppm: 6 ppm in 30% sugar water; for mortality at 12 ppm: 12 ppm in 30% sugar water; for mortality at 25 ppm: 25 ppm in 30% sugar water; for mortality at 50 ppm: 50 ppm in 30% sugar water; for mortality at 100 ppm: 100 ppm in 30% sugar water
# Protocol: Dilution series were manufactured with water. As solvent for the test preparations and similarly as a nutrition agent for the flies, 30% sugar water was used which had been coloured with chlorantin light red (as an attractant). The dilutions were tested with one day old houseflies. The 1, 2 and 4 hour controls enabled the speed of action to be determined. By means of the 24 hour control the limit concentration (action strength) could also be determined.
# Sitophilus granarius = experiment: Durability (disinfection) test on wheat, grain weevil; format: in vivo; settings: 168 h, read-out: % animals dead after one week exposure
# Source text: (§1) Wheat was shaken up with 5% dusting agent and then mixed again repeatedly with untreated wheat at half the poison concentration. In this way, a dilution series with concentrations of 50 - 25 - 12 - 6 - 3 - 1.5 ppm was obtained.
# (§2) Since the test is repeated once per month, the desired information is obtained concerning the residual effect. In the test, the important pests in storage protection were chosen, viz, the grain weevil (Sitophilus granarius) - lesser grain borer (Rhizopertha dominica) and the larvae of the Khapra beetle (Trogoderma granarium), which are very resistant to insecticides. 20 test insects were tested per concentration and the results are expressed in the following table.
# Rhizopertha dominica = experiment: Durability (disinfection) test on wheat, lesser grain borer; format: in vivo; settings: Rhyzopertha dominica, 168 h, read-out: % animals dead after one week exposure
# Source text: as §1, §2
# Trogoderma granarium (L) = experiment: Durability (disinfection) test on wheat, larvae of the Khapra beetle; format: in vivo; settings: 168 h, read-out: % animals dead after one week exposure
# Source text: as §1, §2
# Sit. Granarius = experiment: Diffusion action in wheat (gas phase between wheat grains); format: in vivo; settings: Sitophilus granarius, 168 h, 50 ppm treated wheat layer, read-out: Mortality in % after 7 days exposure time
# Source text: A plexiglass box was divided by means of wire grids into ten vertical layers each 1 cm thick. Each compartment was filled with wheat grains. The first compartment contained wheat grains which had been treated with 50 ppm active agent (5% dusting agent). The remainder of the compartment contained untreated wheat. All the compartments were then supplied with grain weevils. The mortality was noted after 7 days exposure time and the results are expressed in the following table. Diffusion of active substance in gas phase between the wheat grains
# insects = experiment: Insecticidal action and effective life (general statement); format: in vivo
# [2] = Vapour pressure and diffusion (general statement)
# [3] = Acute oral toxicity (warm blooded toxicity) in rats; settings: rat, in vivo, po
# [4] = compared to compounds of French Pat. No. 1530955, PHOSDRIN or DDVP
structure (smiles),measurement,setting,value
"COC(=O)C(C)=COP(=S)(OC)OC [Compound I, 3-hydroxymethacrylic acid methyl ester dimethylthionophosphate]",mortality at 0.4 ppm,[1]; 1 hour,0%
same,mortality at 0.4 ppm,[1]; 2 hours,0%
same,mortality at 0.4 ppm,[1]; 4 hours,0%
same,mortality at 0.4 ppm,[1]; 24 hours,0%
same,mortality at 0.8 ppm,[1]; 1 hour,0%
same,mortality at 0.8 ppm,[1]; 2 hours,0%
same,mortality at 0.8 ppm,[1]; 4 hours,0%
same,mortality at 0.8 ppm,[1]; 24 hours,0%
same,mortality at 1.5 ppm,[1]; 1 hour,0%
same,mortality at 1.5 ppm,[1]; 2 hours,0%
same,mortality at 1.5 ppm,[1]; 4 hours,0%
same,mortality at 1.5 ppm,[1]; 24 hours,10%
same,mortality at 3 ppm,[1]; 1 hour,10%
same,mortality at 3 ppm,[1]; 2 hours,20%
same,mortality at 3 ppm,[1]; 4 hours,50%
same,mortality at 3 ppm,[1]; 24 hours,90%
same,mortality at 6 ppm,[1]; 1 hour,30%
same,mortality at 6 ppm,[1]; 2 hours,40%
same,mortality at 6 ppm,[1]; 4 hours,100%
same,mortality at 6 ppm,[1]; 24 hours,100%
same,mortality at 12 ppm,[1]; 1 hour,40%
same,mortality at 12 ppm,[1]; 2 hours,70%
same,mortality at 12 ppm,[1]; 4 hours,100%
same,mortality at 12 ppm,[1]; 24 hours,100%
same,mortality at 25 ppm,[1]; 1 hour,40%
same,mortality at 25 ppm,[1]; 2 hours,70%
same,mortality at 25 ppm,[1]; 4 hours,100%
same,mortality at 25 ppm,[1]; 24 hours,100%
same,mortality at 50 ppm,[1]; 1 hour,60%
same,mortality at 50 ppm,[1]; 2 hours,90%
same,mortality at 50 ppm,[1]; 4 hours,100%
same,mortality at 50 ppm,[1]; 24 hours,100%
same,mortality at 100 ppm,[1]; 1 hour,100%
same,mortality at 100 ppm,[1]; 2 hours,100%
same,mortality at 100 ppm,[1]; 4 hours,100%
same,mortality at 100 ppm,[1]; 24 hours,100%
same,mortality at 1.5 ppm,Sitophilus granarius; wheat fresh,100%
same,mortality at 1.5 ppm,Sitophilus granarius; wheat stored 1 month,90%
same,mortality at 1.5 ppm,Sitophilus granarius; wheat stored 2 months,100%
same,mortality at 1.5 ppm,Sitophilus granarius; wheat stored 3 months,70%
same,mortality at 3 ppm,Sitophilus granarius; wheat fresh,100%
same,mortality at 3 ppm,Sitophilus granarius; wheat stored 1 month,100%
same,mortality at 3 ppm,Sitophilus granarius; wheat stored 2 months,100%
same,mortality at 3 ppm,Sitophilus granarius; wheat stored 3 months,95%
same,mortality at 6 ppm,Sitophilus granarius; wheat fresh,100%
same,mortality at 6 ppm,Sitophilus granarius; wheat stored 1 month,100%
same,mortality at 6 ppm,Sitophilus granarius; wheat stored 2 months,100%
same,mortality at 6 ppm,Sitophilus granarius; wheat stored 3 months,100%
same,mortality at 12 ppm,Sitophilus granarius; wheat fresh,100%
same,mortality at 12 ppm,Sitophilus granarius; wheat stored 1 month,100%
same,mortality at 12 ppm,Sitophilus granarius; wheat stored 2 months,100%
same,mortality at 12 ppm,Sitophilus granarius; wheat stored 3 months,100%
same,mortality at 25 ppm,Sitophilus granarius; wheat fresh,100%
same,mortality at 25 ppm,Sitophilus granarius; wheat stored 1 month,100%
same,mortality at 25 ppm,Sitophilus granarius; wheat stored 2 months,100%
same,mortality at 25 ppm,Sitophilus granarius; wheat stored 3 months,100%
same,mortality at 50 ppm,Sitophilus granarius; wheat fresh,100%
same,mortality at 50 ppm,Sitophilus granarius; wheat stored 1 month,100%
same,mortality at 50 ppm,Sitophilus granarius; wheat stored 2 months,100%
same,mortality at 50 ppm,Sitophilus granarius; wheat stored 3 months,100%
same,mortality at 1.5 ppm,Rhizopertha dominica; wheat fresh,20%
same,mortality at 1.5 ppm,Rhizopertha dominica; wheat stored 1 month,0%
same,mortality at 1.5 ppm,Rhizopertha dominica; wheat stored 2 months,15%
same,mortality at 1.5 ppm,Rhizopertha dominica; wheat stored 3 months,0%
same,mortality at 3 ppm,Rhizopertha dominica; wheat fresh,90%
same,mortality at 3 ppm,Rhizopertha dominica; wheat stored 1 month,5%
same,mortality at 3 ppm,Rhizopertha dominica; wheat stored 2 months,10%
same,mortality at 3 ppm,Rhizopertha dominica; wheat stored 3 months,15%
same,mortality at 6 ppm,Rhizopertha dominica; wheat fresh,100%
same,mortality at 6 ppm,Rhizopertha dominica; wheat stored 1 month,60%
same,mortality at 6 ppm,Rhizopertha dominica; wheat stored 2 months,40%
same,mortality at 6 ppm,Rhizopertha dominica; wheat stored 3 months,15%
same,mortality at 12 ppm,Rhizopertha dominica; wheat fresh,100%
same,mortality at 12 ppm,Rhizopertha dominica; wheat stored 1 month,85%
same,mortality at 12 ppm,Rhizopertha dominica; wheat stored 2 months,70%
same,mortality at 12 ppm,Rhizopertha dominica; wheat stored 3 months,35%
same,mortality at 25 ppm,Rhizopertha dominica; wheat fresh,100%
same,mortality at 25 ppm,Rhizopertha dominica; wheat stored 1 month,100%
same,mortality at 25 ppm,Rhizopertha dominica; wheat stored 2 months,80%
same,mortality at 25 ppm,Rhizopertha dominica; wheat stored 3 months,75%
same,mortality at 50 ppm,Rhizopertha dominica; wheat fresh,100%
same,mortality at 50 ppm,Rhizopertha dominica; wheat stored 1 month,100%
same,mortality at 50 ppm,Rhizopertha dominica; wheat stored 2 months,100%
same,mortality at 50 ppm,Rhizopertha dominica; wheat stored 3 months,100%
same,mortality at 1.5 ppm,Trogoderma granarium (L); wheat fresh,90%
same,mortality at 1.5 ppm,Trogoderma granarium (L); wheat stored 1 month,0%
same,mortality at 1.5 ppm,Trogoderma granarium (L); wheat stored 2 months,0%
same,mortality at 1.5 ppm,Trogoderma granarium (L); wheat stored 3 months,0%
same,mortality at 3 ppm,Trogoderma granarium (L); wheat fresh,95%
same,mortality at 3 ppm,Trogoderma granarium (L); wheat stored 1 month,10%
same,mortality at 3 ppm,Trogoderma granarium (L); wheat stored 2 months,0%
same,mortality at 3 ppm,Trogoderma granarium (L); wheat stored 3 months,0%
same,mortality at 6 ppm,Trogoderma granarium (L); wheat fresh,100%
same,mortality at 6 ppm,Trogoderma granarium (L); wheat stored 1 month,85%
same,mortality at 6 ppm,Trogoderma granarium (L); wheat stored 2 months,30%
same,mortality at 6 ppm,Trogoderma granarium (L); wheat stored 3 months,10%
same,mortality at 12 ppm,Trogoderma granarium (L); wheat fresh,100%
same,mortality at 12 ppm,Trogoderma granarium (L); wheat stored 1 month,95%
same,mortality at 12 ppm,Trogoderma granarium (L); wheat stored 2 months,85%
same,mortality at 12 ppm,Trogoderma granarium (L); wheat stored 3 months,55%
same,mortality at 25 ppm,Trogoderma granarium (L); wheat fresh,100%
same,mortality at 25 ppm,Trogoderma granarium (L); wheat stored 1 month,100%
same,mortality at 25 ppm,Trogoderma granarium (L); wheat stored 2 months,100%
same,mortality at 25 ppm,Trogoderma granarium (L); wheat stored 3 months,100%
same,mortality at 50 ppm,Trogoderma granarium (L); wheat fresh,100%
same,mortality at 50 ppm,Trogoderma granarium (L); wheat stored 1 month,100%
same,mortality at 50 ppm,Trogoderma granarium (L); wheat stored 2 months,100%
same,mortality at 50 ppm,Trogoderma granarium (L); wheat stored 3 months,100%
same,mortality at 50 ppm,Sit. Granarius; distance 1 cm,100%
same,mortality at 50 ppm,Sit. Granarius; distance 2 cm,100%
same,mortality at 50 ppm,Sit. Granarius; distance 3 cm,100%
same,mortality at 50 ppm,Sit. Granarius; distance 4 cm,100%
same,mortality at 50 ppm,Sit. Granarius; distance 5 cm,90%
same,mortality at 50 ppm,Sit. Granarius; distance 6 cm,15%
same,insecticidal action,insects; [4],stronger insecticidal action
same,effective life,insects; in vivo,more than 4 months
same,diffusion into the gaps between stored foodstuffs,[2],diffuses easily
same,vapour pressure,[2]; [4],increased vapour pressure
same,LD50,[3],500 mg/kg
